The source made the active and inactive calls. The calls are words filed in the database; no cut-off is given here.
How the values were obtained:
[1] = Induction of calcium influx in HEK293 cells expressing human GLUK5/GLUK2 by FLIPR assay
[2] = Induction of calcium influx in HEK293 cells expressing human GLUK5/GLUK6 by FLIPR assay
[3] = target: Glutamate receptor ionotropic, kainate 2 (Rattus norvegicus, UniProt P42260); test: Displacement of [3H]kainate from rat GLUK6 expressed in HEK293 cells; assay type: cell-based
[4] = target: Glutamate receptor ionotropic, AMPA (Rattus norvegicus, UniProt P19490+P19491+P19492+P19493)
Description: Antagonist activity against AMPA receptor expressed in motoneurones by inhibition of fDR-VRP in the neonatal rat spinal cord

[5] = target: Glutamate receptor 2 (Homo sapiens) (UniProt P42262); test: Inhibition of glutamate-induced calcium influx in HEK293 cells expressing human GLUA2 up to 100 uM; assay type: functional, cell-based
Glutamate receptor 1 [6] = target: T1, Glutamate receptor 1 (Homo sapiens, UniProt P42261); test: Inhibition of glutamate-induced calcium influx in HEK293 cells expressing human GLUA1 up to 100 uM; assay type: functional, cell-based
[7] = target: Metabotropic glutamate receptor 1 (Rattus norvegicus) (UniProt P23385); test: Activity against DHPG-induced depolarization of neonatal rat motoneurons expressing mGlu1 receptor at 50 uM
[8] = target: Glutamate NMDA receptor (Rattus norvegicus) (UniProt P35439+Q00959+Q00960+Q00961+Q62645+Q8VHN2+Q9R1M7); test: Activity against NMDA-induced depolarization of neonatal rat motoneurons expressing NMDA receptor at 50 uM; assay type: protein-complex assay
Glutamate receptor 4 = Glutamate receptor 4 (Homo sapiens, UniProt P48058); test: Inhibition of glutamate-induced calcium influx in HEK293 cells expressing human GLUA4 up to 100 uM; assay type: functional, cell-based
[9] = Inhibition of glutamate-induced calcium influx in HEK293 cells expressing human GLUK5/GLUK2 by FLIPR assay; assay type: functional, cell-based
[10] = target: Metabotropic glutamate receptor 5 (Rattus norvegicus) (UniProt P31424); test: Activity against DHPG-induced depolarization of neonatal rat motoneurons expressing mGlu5 receptor at 50 uM
[11] = Inhibition of glutamate-induced calcium influx in HEK293 cells expressing human GLUK5/GLUK6 by FLIPR assay; assay type: functional, cell-based
[12] = target: Glutamate receptor ionotropic, kainate 1 (Homo sapiens, UniProt P39086); test: Inhibition of glutamate-induced calcium influx in HEK293 cells expressing human GLUK5 by FLIPR assay; assay type: functional, cell-based
Glutamate receptor 1 [13] = target: T1, Glutamate receptor 1; test: Inhibition of glutamate-induced calcium influx in HEK293 cells expressing human GLUA1; assay type: functional, cell-based

Glutamate receptor ionotropic, kainate 2, sequence (P42260 whole entry): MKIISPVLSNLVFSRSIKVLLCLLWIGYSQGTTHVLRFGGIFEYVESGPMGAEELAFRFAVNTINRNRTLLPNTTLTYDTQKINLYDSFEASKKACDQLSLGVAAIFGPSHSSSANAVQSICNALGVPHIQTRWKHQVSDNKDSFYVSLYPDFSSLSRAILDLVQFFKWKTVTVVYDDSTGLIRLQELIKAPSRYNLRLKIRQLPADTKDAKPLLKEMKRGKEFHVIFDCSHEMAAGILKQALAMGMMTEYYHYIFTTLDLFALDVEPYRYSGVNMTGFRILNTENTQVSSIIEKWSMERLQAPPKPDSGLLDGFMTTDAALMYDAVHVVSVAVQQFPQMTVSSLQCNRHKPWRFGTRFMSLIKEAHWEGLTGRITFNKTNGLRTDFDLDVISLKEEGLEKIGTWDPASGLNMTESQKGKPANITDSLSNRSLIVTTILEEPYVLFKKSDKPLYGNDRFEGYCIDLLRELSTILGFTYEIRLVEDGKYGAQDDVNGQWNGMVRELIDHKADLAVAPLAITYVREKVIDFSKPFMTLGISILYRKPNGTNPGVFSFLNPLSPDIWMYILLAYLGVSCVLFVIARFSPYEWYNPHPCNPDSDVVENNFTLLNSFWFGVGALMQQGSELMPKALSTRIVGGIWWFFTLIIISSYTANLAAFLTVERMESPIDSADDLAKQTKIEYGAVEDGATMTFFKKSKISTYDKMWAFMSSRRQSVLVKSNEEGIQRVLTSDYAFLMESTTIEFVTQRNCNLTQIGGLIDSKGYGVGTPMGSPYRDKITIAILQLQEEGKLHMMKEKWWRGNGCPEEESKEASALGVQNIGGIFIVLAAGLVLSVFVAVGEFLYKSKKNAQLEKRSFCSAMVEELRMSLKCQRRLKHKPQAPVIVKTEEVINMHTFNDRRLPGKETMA
T1 sequence (P42261 whole entry): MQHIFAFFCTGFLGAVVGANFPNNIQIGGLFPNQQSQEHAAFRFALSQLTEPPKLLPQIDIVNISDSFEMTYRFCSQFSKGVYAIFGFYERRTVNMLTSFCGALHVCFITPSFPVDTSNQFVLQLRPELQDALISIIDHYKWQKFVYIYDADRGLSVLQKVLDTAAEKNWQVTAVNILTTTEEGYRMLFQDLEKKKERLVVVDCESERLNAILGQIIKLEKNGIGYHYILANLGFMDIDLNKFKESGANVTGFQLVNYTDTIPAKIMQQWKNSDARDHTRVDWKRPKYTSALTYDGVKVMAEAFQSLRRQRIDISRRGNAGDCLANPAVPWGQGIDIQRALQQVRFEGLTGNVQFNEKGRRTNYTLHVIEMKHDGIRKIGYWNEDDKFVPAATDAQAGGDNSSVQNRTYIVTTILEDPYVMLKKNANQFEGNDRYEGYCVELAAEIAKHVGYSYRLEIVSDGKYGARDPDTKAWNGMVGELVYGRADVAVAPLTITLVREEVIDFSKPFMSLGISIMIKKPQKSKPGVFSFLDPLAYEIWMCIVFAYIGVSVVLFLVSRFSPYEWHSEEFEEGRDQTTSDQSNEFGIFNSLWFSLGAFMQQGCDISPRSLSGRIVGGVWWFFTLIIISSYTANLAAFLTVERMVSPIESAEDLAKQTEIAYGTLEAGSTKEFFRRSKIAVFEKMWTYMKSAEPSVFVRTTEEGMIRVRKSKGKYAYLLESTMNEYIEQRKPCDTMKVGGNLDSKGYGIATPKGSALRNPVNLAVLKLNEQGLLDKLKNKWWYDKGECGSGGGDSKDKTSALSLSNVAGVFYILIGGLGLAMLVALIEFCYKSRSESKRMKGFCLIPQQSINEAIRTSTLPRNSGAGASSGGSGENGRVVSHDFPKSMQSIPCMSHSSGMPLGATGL
Glutamate receptor ionotropic, kainate 1, sequence (P39086 whole entry): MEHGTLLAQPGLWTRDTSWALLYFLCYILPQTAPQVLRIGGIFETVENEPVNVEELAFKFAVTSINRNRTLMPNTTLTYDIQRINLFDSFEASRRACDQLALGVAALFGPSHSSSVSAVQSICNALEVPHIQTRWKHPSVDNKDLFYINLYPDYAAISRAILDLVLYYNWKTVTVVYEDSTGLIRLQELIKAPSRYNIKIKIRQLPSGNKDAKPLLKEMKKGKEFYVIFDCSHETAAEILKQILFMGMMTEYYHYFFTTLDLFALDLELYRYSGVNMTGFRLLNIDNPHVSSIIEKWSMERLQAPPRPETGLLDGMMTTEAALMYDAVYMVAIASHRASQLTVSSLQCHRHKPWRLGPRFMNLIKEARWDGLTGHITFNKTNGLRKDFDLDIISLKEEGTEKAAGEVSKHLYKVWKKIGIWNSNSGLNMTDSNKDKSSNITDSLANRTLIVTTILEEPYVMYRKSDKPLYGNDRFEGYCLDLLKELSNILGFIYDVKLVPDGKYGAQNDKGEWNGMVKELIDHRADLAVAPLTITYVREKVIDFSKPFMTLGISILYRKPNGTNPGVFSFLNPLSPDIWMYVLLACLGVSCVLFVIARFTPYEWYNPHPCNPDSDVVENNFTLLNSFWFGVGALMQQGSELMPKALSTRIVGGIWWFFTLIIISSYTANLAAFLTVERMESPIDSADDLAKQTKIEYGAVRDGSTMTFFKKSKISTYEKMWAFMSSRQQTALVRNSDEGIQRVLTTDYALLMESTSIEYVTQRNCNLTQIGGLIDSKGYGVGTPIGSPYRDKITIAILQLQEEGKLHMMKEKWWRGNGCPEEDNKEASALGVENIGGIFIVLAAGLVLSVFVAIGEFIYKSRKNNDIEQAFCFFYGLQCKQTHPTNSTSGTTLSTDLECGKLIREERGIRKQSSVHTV
Glutamate receptor 4, sequence (P48058 whole entry): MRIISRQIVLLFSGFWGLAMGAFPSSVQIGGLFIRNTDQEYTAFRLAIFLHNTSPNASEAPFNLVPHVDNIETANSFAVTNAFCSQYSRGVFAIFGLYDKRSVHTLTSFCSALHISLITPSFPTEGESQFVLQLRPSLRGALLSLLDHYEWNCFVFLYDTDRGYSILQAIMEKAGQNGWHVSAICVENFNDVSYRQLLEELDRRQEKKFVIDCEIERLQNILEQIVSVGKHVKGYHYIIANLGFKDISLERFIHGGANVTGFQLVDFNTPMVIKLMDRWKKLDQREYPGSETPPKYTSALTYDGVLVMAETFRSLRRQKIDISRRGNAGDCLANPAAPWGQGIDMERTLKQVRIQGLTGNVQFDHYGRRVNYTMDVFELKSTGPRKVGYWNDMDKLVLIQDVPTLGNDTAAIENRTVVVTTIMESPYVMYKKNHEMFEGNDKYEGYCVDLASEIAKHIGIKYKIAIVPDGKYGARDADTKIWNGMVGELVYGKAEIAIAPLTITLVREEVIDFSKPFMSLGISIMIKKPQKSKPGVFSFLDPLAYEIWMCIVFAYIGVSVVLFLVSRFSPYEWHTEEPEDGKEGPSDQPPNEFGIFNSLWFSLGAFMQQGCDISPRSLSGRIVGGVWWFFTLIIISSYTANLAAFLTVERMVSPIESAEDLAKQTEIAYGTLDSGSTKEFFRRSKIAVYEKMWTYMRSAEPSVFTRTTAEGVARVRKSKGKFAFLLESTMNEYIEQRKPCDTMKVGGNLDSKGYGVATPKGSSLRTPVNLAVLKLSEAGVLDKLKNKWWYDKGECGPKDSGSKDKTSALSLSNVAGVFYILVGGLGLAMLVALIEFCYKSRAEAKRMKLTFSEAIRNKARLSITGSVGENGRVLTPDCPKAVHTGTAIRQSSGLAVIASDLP
Metabotropic glutamate receptor 1 (Rattus norvegicus), sequence (P23385 19-1199 limits assumed): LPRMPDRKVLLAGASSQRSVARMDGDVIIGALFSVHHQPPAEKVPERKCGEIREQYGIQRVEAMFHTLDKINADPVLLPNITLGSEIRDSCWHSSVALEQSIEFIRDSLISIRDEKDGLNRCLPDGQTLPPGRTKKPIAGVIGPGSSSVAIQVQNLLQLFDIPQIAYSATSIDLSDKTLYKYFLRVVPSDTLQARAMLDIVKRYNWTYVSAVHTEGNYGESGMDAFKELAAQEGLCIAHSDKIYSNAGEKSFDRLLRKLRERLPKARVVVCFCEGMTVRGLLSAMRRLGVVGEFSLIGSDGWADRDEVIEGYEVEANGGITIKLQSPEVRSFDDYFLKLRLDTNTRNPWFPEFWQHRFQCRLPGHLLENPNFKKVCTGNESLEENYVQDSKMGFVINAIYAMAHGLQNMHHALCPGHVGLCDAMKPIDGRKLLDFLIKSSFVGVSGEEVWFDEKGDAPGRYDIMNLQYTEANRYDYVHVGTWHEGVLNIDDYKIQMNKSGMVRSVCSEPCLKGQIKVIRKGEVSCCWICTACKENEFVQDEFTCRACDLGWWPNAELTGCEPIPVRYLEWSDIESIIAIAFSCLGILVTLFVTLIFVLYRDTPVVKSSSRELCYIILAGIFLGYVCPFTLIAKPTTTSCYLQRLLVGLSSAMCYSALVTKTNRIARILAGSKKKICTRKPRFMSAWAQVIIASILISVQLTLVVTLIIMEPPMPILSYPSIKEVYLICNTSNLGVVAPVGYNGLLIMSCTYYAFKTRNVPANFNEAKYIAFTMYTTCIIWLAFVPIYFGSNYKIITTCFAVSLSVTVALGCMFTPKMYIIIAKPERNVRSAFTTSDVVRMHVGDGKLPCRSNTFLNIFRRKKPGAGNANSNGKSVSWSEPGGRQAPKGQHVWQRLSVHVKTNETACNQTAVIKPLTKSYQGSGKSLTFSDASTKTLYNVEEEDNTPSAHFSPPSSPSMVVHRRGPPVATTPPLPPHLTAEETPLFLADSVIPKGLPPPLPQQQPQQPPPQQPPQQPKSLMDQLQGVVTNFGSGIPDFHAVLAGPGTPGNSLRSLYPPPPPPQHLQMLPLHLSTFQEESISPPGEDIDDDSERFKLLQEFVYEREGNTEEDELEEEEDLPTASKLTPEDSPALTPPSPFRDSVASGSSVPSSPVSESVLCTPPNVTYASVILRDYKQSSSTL

Compound | Ki [3] [µM] | IC50 [4] [µM] | other results
N[C@@H](CCC(=O)O)C(=O)O [GLUTAMIC ACID] |  |  | EC50 [1]: 35 µM; EC50 [2]: 27 µM
N[C@@H](Cn1ccc(=O)n(CCC(=O)O)c1=O)C(=O)O | > 1000 |  | 
N[C@@H](Cn1ccc(=O)n(Cc2ccoc2C(=O)O)c1=O)C(=O)O | > 100 | 11.7 | 
N[C@@H](Cn1cc(I)c(=O)n(CCc2nn[nH]n2)c1=O)C(=O)O |  | 3.73 | 
N[C@@H](Cn1ccc(=O)n(Cc2nn[nH]n2)c1=O)C(=O)O | > 100 | 45.4 | 
N[C@@H](Cn1ccc(=O)n(Cc2ccc(-c3nn[nH]n3)cc2)c1=O)C(=O)O |  | 50.9 | 
NC(Cn1ccc(=O)n(Cc2ccc(P(=O)(O)O)cc2)c1=O)C(=O)O (racemic) | > 1000 | 107 | 
N[C@@H](Cn1ccc(=O)n(Cc2ccccc2P(=O)(O)O)c1=O)C(=O)O |  | > 100 | 
N[C@@H](Cn1ccc(=O)n(Cc2ccsc2C(=O)O)c1=O)C(=O)O | > 100 | 31.2 | Activity [5]: inactive; Activity (Glutamate receptor 1 [6]): inactive; Kd [4]: 71.4 µM; Activity [7]: inactive; Activity [8]: inactive; Activity (Glutamate receptor 4): inactive; IC50 [9]: 1.21 µM; Activity [10]: inactive; IC50 [11]: 0.62 µM; IC50 [12]: 0.68 µM
N[C@@H](Cn1ccc(=O)n(CCc2nnn[nH]2)c1=O)C(=O)O | > 100 | 6.87 | 
NS(=O)(=O)c1cccc2c1c([N+](=O)[O-])cc1nc(O)c(O)nc12 [NBQX] |  |  | IC50 (Glutamate receptor 1 [13]): 6 µM; IC50 [9]: 50 µM; IC50 [11]: 28 µM
N[C@@H](Cn1ccc(=O)n(Cc2ccc(S(=O)(=O)O)cc2)c1=O)C(=O)O | > 100 | 49 | 
N[C@H](Cn1ccc(=O)n(Cc2ccsc2C(=O)O)c1=O)C(=O)O | > 1000 | > 100 | 

Reference: ChEMBL document CHEMBL1146072, “Structure-activity relationship studies on N3-substituted willardiine derivatives acting as AMPA or kainate receptor antagonists” (J Med Chem, 2006)
